Reference: publication PMC9794710, “Introduction of benzyloxy pharmacophore into aryl/heteroaryl chalcone motifs as a new class of monoamine oxidase B inhibitors” (Scientific Reports, 2022)
Where two headings read alike, the source gives them in different places.

Key:
hMAO-A = biological target: T1, hMAO-A (Homo sapiens, UniProt P21397); test: hMAO-A inhibitory activity assay (recombinant enzyme, kynuramine substrate); assay type: biochemical; conditions: kynuramine 0.06 mM; for remaining activity at 10 µM: 10 µM compound, read-out: Residual activity at 10 µM (%) hMAO-A
T1 construct: purchased Sigma-Aldrich (St. Louis, MO, USA)
T1 sequence (P21397 1-527): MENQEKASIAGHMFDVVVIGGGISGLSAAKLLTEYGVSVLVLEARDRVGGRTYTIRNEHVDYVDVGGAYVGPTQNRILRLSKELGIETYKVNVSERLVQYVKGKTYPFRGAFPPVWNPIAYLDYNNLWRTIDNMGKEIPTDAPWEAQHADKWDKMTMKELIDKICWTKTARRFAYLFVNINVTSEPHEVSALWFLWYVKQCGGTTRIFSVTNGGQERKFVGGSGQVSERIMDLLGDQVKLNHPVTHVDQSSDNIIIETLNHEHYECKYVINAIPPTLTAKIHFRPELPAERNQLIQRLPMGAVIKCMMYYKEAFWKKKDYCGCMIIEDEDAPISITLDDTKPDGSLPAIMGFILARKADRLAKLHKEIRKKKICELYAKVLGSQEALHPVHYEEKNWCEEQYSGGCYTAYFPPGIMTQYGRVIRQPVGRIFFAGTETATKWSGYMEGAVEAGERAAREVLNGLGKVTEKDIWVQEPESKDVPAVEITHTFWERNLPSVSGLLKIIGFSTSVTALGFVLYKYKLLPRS

hMAO-B [1] = biological target: T2, hMAO-B (Homo sapiens, UniProt P27338); test: hMAO-B inhibitory activity assay (recombinant enzyme, benzylamine substrate); conditions: for SI (selectivity index for hMAO-B as compared with hMAO-A): IC50 of hMAO-A/IC50 of hMAO-B; for remaining activity at 10 µM: read-out: Residual activity at 10 µM (%) hMAO-B;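 on all read-outs here: benzylamine used at 0.3 mM as hMAO-B substrate, compounds first screened at 10 µM, hMAO-A assayed with 0.06 mM kynuramine for the selectivity ratio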
T2 sequence (P27338 1-520): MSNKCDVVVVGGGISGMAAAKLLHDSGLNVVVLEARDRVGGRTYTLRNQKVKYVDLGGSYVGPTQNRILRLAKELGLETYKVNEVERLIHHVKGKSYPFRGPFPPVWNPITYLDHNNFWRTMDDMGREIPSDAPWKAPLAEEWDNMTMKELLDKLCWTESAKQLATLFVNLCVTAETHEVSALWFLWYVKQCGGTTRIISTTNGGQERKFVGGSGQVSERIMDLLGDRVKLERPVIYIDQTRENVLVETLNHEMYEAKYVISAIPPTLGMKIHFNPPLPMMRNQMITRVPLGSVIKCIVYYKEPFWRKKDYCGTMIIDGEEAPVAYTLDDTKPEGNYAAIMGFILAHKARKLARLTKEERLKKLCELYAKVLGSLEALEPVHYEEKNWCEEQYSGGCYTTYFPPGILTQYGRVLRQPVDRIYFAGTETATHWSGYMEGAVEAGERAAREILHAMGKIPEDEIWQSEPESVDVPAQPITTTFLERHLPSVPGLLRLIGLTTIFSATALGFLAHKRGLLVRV

hMAO-B [2] = biological target: T2, hMAO-B
hMAO-B [3] = biological target: T2, hMAO-B; test: Enzyme kinetic study of hMAO-B inhibition (Lineweaver–Burk and secondary plots); assay type: biochemical; parameters: purchased Sigma-Aldrich (St. Louis, MO, USA); conditions: for Type of hMAO-B inhibition: Lineweaver–Burk plots; for Ki: secondary plots, five substrate and three inhibitor concentrations
[4] = Parallel artificial membrane permeation assay (PAMPA) for BBB permeation; assay type: in vitro ADME; conditions: for Papp: pH 7.4, read-out: Experimental Pe
hMAO-B [5] = biological target: T2, hMAO-B; test: Reversibility analysis of hMAO-B inhibition by dialysis; assay type: biochemical; parameters: purchased Sigma-Aldrich (St. Louis, MO, USA); conditions: for Reversibility of hMAO-B inhibition: dialysis; for Relative activity of hMAO-B, undialyzed (AU) / Relative activity of hMAO-B, dialyzed (AD): preincubation 30 min at ~2 × IC50 (B10 0.134, B15 0.240, lazabemide 0.220, pargyline 0.280 μM); for Relative activity of hMAO-B, dialyzed (AD): after dialysis
[6] = parameters: method as in PMID 26587996; conditions: cited from earlier work

| Compound | remaining activity at 10 µM (hMAO-A) [%] | IC50 (hMAO-A) [µM] | IC50 (hMAO-B [1]) [µM] | SI (selectivity index for hMAO-B as compared with hMAO-A) (hMAO-B [1]) | remaining activity at 10 µM (hMAO-B [1]) [%] | SI (selectivity index for hMAO-B as compared with hMAO-A) (hMAO-B [2]) | Type of hMAO-B inhibition (hMAO-B [3]) | Ki (hMAO-B [3]) [µM] | Pe value [4] | Prediction (CNS permeation) [4] | Papp [4] [×10⁻⁶ cm/s] | Reversibility of hMAO-B inhibition (hMAO-B [5]) | Relative activity of hMAO-B, undialyzed (AU) (hMAO-B [5]) [%] | Relative activity of hMAO-B, dialyzed (AD) (hMAO-B [5]) [%] | bioavailability [6] |
| --- | --- | --- | --- | --- | --- | --- | --- | --- | --- | --- | --- | --- | --- | --- | --- |
| O=C(/C=C/c1ccccc1OCc1ccccc1)c1ccc2c(c1)OCO2 [Compound B1] | 82.6 ± 5.03 | 26.9 ± 4.16 | 1.44 ± 0.149 | 18.677 | 35.5 ± 6.05 | – | – | – | – | – | – | – | – | – | – |
| O=C(/C=C/c1ccc(OCc2ccccc2)cc1)c1ccc2c(c1)OCO2 [Compound B2] | 53.1 ± 1.58 | 13.7 ± 1.53 | 0.626 ± 0.296 | – | 23.6 ± 0.96 | 21.933 | – | – | – | – | – | – | – | – | – |
| O=C(/C=C/c1ccc(OCc2ccccc2)cc1)c1ccc2c(c1)OCCO2 [Compound B3] | 58.3 ± 0.84 | 14.3 ± 0.203 | 0.261 ± 0.016 | 54.663 | 0 | – | – | – | – | – | – | – | – | – | – |
| CS(=O)(=O)c1ccc(C(=O)/C=C/c2ccccc2OCc2ccccc2)cc1 [Compound B4] | 78.2 ± 4.32 | 29.4 ± 2.71 | 0.233 ± 0.11 | 125.915 | 16.2 ± 6.49 | – | – | – | – | – | – | – | – | – | – |
| CS(=O)(=O)c1ccc(C(=O)/C=C/c2ccc(OCc3ccccc3)cc2)cc1 [Compound B5] | 89.2 ± 4.47 | > 40 | 0.224 ± 0.082 | > 178.651 | 0 | – | – | – | – | – | – | – | – | – | – |
| CSc1ccc(C(=O)/C=C/c2ccccc2OCc2ccccc2)cc1 [Compound B6] | 92 ± 2.93 | > 40 | 6.55 ± 1.34 | > 6.107 | 41.3 ± 4.9 | – | – | – | – | – | – | – | – | – | – |
| CSc1ccc(C(=O)/C=C/c2ccc(OCc3ccccc3)cc2)cc1 [Compound B7] | 58.4 ± 4.48 | 12.6 ± 0.898 | 0.149 ± 0.006 | 84.544 | 0 | – | – | – | – | – | – | – | – | – | – |
| O=C(/C=C/c1ccccc1OCc1ccccc1)c1ccc(Br)s1 [Compound B8] | 92.45 ± 0.49 | > 40 | 17.9 ± 0.268 | > 2.237 | 64.4 ± 1.5 | – | – | – | – | – | – | – | – | – | – |
| O=C(/C=C/c1ccc(OCc2ccccc2)cc1)c1ccc(Br)s1 [Compound B9] | 69.1 ± 1.54 | 24 ± 1.44 | 0.236 ± 0.017 | 101.551 | 0 | – | – | – | – | – | – | – | – | – | – |
| O=C(/C=C/c1ccc(OCc2ccccc2)cc1)c1cccs1 [Compound B10] | 76.7 ± 3.22 | 33.8 ± 6.89 | 0.067 ± 0.005 | 504.791 | 0 | – | competitive inhibitors of hMAO-B | 0.03 ± 0.001 | higher than 4.0 × 10^–6 cm/s | CNS + (Pe (10^−6 cm/s) > 4.00: CNS + (high permeation)) | 4.93 ± 0.13 | reversible inhibitors of hMAO-B | 44.29 | 77.53 | – |
| O=C(/C=C/c1ccccc1OCc1ccccc1)c1cccs1 [Compound B11] | 81.3 ± 2.92 | > 40 | 5.78 ± 2.39 | > 6.915 | 41.2 ± 0.12 | – | – | – | – | – | – | – | – | – | – |
| O=C(/C=C/c1ccccc1OCc1ccccc1)c1ccc(C(F)(F)F)cc1 [Compound B12] | 86.7 ± 2.68 | > 40 | 37.6 ± 1.88 | > 1.065 | 75.4 ± 3.6 | – | – | – | – | – | – | – | – | – | – |
| O=C(/C=C/c1ccc(OCc2ccccc2)cc1)c1ccc(C(F)(F)F)cc1 [Compound B13] | 99.1 ± 1.24 | > 40 | 0.255 ± 0.016 | > 156.617 | 1.39 ± 3.27 | – | – | – | – | – | – | – | – | – | – |
| CCOc1ccc(C(=O)/C=C/c2ccccc2OCc2ccccc2)cc1 [Compound B14] | 91.2 ± 6.2 | > 40 | 11.3 ± 0.331 | > 3.525 | 51.9 ± 1.31 | – | – | – | – | – | – | – | – | – | – |
| CCOc1ccc(C(=O)/C=C/c2ccc(OCc3ccccc3)cc2)cc1 [Compound B15] | 75.9 ± 3.1 | 34.5 ± 3.54 | 0.12 ± 0.01 | 287.600 | 0 | – | competitive inhibitors of hMAO-B | 0.033 ± 0.001 | higher than 4.0 × 10^–6 cm/s | CNS + (Pe (10^−6 cm/s) > 4.00: CNS + (high permeation)) | 4.09 ± 0.24 | reversible inhibitors of hMAO-B | 41.68 | 78.78 | – |
| C[C@H](NCc1ccc(OCc2cccc(F)c2)cc1)C(N)=O [Safinamide] | – | – | – | – | – | – | – | – | – | – | – | – | – | – | about 95% |
| C#CCN(C)[C@H](C)Cc1ccccc1 [Selegiline, reference compound] | – | – | – | – | – | – | – | – | – | CNS + (Pe (10^−6 cm/s) > 4.00: CNS + (high permeation)) | – | – | – | – | – |
